US9545393B2, “Methods and compositions for treating pain” (The Board of Trustees of the Leland Stanford Junior …, priority 2012, dated 2017)

Tests used:
[1] = system: 4-hydroxynonenal (4-HNE) protein adducts; experiment: Western blot of 4-HNE protein adducts in inflamed paw; assay type: in vivo, rat; conditions: rats, 3 hours after carrageenan; P<0.01
Protocol: Biochemical Studies In Rats and Mice. Protein was isolated from rat paw tissue at 3 hours after treatment or from liver tissue of mutant or wild type mice. Tissues were homogenized in buffer containing (Hepes 10 mM, NaCl 0.9%, EGTA 1 mM, DTPA 100 μM, Triton-X 1%, Protease and Phosphatase inhibitors (AEBSF, Aprotinin, Bestatin, E-64, Leupeptin, Pepstatin A, Sodium orthovanadate, Sodium molybdate, Sodium tartrate, Imidazole, Cantharidin, (−)-p-Bromolevamisole oxalate and Calyculin A). The samples were centrifuged at 700 g for 5 min at 4° C. Mitochondrial fraction from liver was obtained as previously described (Chen, et al. (2008) Activation of aldehyde dehydrogenase-2 reduces ischemic damage to the heart. Science 321, 1493-1495; Sun, L., et al. ALDH2 activator inhibits increased myocardial infarction injury by nitroglycerin tolerance. Sci Transl Med 3, 107ra111). Activation of aldehyde dehydrogenase-2 reduces ischemic damage to the heart. Science 2008; 321:1493-5). The protein concentration was determined in the supernatants by using Bradford (Bradford, M. M. (1976). A rapid and sensitive method for the quantitation of microgram quantities of protein utilizing the principle of protein-dye binding. Anal Biochem 72, 248-254).
Western blot analysis. […] Quantification analysis of blots was performed with Image J software, using GAPDH as a loading control.

acetaldehyde = experiment: Tissue acetaldehyde measurement in paw by LC-MS/MS; assay type: in vivo, rat; conditions: rats, Alda-1 versus carrageenan alone
Protocol: Tissue Acetaldehyde Measurements. Paw samples were quickly sealed in microcentrifuge tubes, weighed and 3 volumes (v/w) of 0.75 mg/mL Liberase T L (Roche, Indianapolis, Ind.) was added for overnight digestion at 37° C. Acetaldehyde standard solutions (100-5000 ng/mL) and the tissue samples were reacted with saturated 2,4 dinitrophenylhydrazine solution.
To establish LC-MS/MS conditions, the standard of acetaldehyde 2,4-dinitrophenyl-hydrazine (DNPH) was used. Chromatograms of standards were used to establish characteristic retention times of acetaldehyde, and verified the MS signal was linear over the range of 0.1-5 μg/mL. The acetaldehyde peak area derivatives were calculated and plotted against the concentration of the calibration standards using Analyst®1.5.1 software.
Aliquots (30 μL) were taken from each paw homogenate sample. Acetaldehyde in samples of paw homogenate was extracted by adding methanol containing 40 μg/mL DNPH (150 μL). Both unknown samples and standards were vortexed and centrifuged to separate the precipitate. Ten microliters of sample extracts were injected into LC MS/MS for analysis. Automatic peak detection, integration and data processing were performed by the AB SCIEX Analyst 1.5.1 software package. Concentrations of acetaldehyde were calculated by plotting peak area of unknown samples against a standard curve. […]

## O=C(NCc1ccc2c(c1)OCO2)c1c(Cl)cccc1Cl [Alda-1, N-(1,3-benzodioxol-5-ylmethyl)-2,6-dichlorobenzamide]
[1]
  4-HNE-protein adduct levels in the inflamed paw: reduced
acetaldehyde; carrageenan-induced hyperalgesia
  Decrease of the level of acetaldehyde in paw: ~50%
acetaldehyde; P<0.05
  Carrageenan-induced acetaldehyde levels in inflamed paw (FIG. 2F): significantly reduced
